Measured values as given in patent US20070249717A1, “PREVENTIVE/THERAPEUTIC AGENT FOR VISCERAL PAIN” (AJINOMOTO CO. INC, priority 2004, published 2007).

What was measured:
NK2 receptor = molecular target: T1, NK2 receptor (Oryctolagus cuniculus, UniProt P79218); assay: Action on NK2 receptor: [βAla^8]NKA(4-10)-induced contraction of isolated rabbit pulmonary artery; format: cell-based
T1 construct: The pulmonary artery was isolated from a rabbit; from tissue; host or cells: isolated rabbit pulmonary artery
T1 sequence (P79218 1-384): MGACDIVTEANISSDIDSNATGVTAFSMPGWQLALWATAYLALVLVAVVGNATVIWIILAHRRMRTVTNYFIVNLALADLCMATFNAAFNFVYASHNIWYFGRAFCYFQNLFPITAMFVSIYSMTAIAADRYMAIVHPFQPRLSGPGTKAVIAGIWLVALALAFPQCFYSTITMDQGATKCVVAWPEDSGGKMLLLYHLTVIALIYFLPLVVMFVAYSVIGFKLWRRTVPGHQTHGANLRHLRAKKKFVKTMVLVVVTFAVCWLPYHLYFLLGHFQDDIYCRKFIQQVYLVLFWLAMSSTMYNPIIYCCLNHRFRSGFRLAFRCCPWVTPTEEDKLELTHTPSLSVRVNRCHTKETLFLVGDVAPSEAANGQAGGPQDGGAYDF
Method: A test for NK2 receptor was performed according to the method reported by Emonds et al. (Emonds-Alt X., Advenier, C., Croco, T. Manara, L., Neliat, G., Poncelet, M., Proietto, V., Santucci, V., Soubrie, P., Van Broeck, D., Vilain, P., Le Fur, G. and Breliere, J. C. (1993) SR 48968, a neurokinin A (NK2) receptor antagonist Regul. Peptides. 46: 31-36). The pulmonary artery was isolated from a rabbit. The isolated tissue was hung in a solution of buffer (NaCl 118.0, KCl 4.7, MgSO4 1-2, CaCl2 2.5, KH2PO41.2, NaHCO3 25, glucose 11.0 (pH 7 4) (unit:mM) 37° C.) aerated with oxygen (95% oxygen, 5% carbon dioxide), added with benexytramine (1 μM, a receptor antagonist), propranolol (1 μM, β receptor antagonist), pyrilamine (1 μM, histamine H1 receptor antagonist), atropine (1 μM, muscarinic receptor antagonist) and metiserglde (1 μM, 5-HT2 receptor antagonist). After 60 min or more, lysine (0.3, 3, 30 mM) was added to the buffer, and the contraction of the pulmonary artery due to [βAla^8]NKA(4-10) was measured.
In Table 2, the pulmonary artery contraction by [βAla^8]NKA(4-10) was calculated as 100%.

GABAB receptor = molecular target: T2, GABAB receptor (Cavia porcellus, UniProt A0A286X9P6); assay: Action on GABAB receptor: electrically stimulated contraction of isolated guinea pig ileum; format: cell-based; conditions: for contraction (%): ileum contraction by electric stimulation calculated as 100%
T2 construct: The ileum was isolated from a guinea pig; from tissue; host or cells: isolated guinea pig ileum
T2 sequence (A0A286X9P6 30-844): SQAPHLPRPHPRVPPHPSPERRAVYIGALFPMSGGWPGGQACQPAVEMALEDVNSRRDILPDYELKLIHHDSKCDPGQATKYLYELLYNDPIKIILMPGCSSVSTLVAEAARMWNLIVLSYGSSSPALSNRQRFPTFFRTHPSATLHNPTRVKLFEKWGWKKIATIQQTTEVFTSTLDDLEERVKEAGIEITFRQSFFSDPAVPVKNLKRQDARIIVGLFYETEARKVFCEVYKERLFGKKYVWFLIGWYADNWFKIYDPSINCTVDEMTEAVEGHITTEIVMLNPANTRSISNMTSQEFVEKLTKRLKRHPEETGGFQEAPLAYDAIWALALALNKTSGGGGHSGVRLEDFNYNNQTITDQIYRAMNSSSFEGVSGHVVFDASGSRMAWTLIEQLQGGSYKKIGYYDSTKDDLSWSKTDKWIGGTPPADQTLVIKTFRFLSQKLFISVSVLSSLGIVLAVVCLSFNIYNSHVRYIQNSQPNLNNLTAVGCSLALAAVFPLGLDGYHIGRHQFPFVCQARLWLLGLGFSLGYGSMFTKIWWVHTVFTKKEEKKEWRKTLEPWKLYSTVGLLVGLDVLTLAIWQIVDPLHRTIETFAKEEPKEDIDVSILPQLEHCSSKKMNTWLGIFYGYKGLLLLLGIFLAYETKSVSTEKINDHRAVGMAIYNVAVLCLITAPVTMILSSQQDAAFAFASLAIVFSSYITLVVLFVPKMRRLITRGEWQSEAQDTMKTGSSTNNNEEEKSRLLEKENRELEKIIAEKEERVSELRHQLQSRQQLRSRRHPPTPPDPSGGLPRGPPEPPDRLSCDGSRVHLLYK
T2 sequence (H0V741 1-820 partner): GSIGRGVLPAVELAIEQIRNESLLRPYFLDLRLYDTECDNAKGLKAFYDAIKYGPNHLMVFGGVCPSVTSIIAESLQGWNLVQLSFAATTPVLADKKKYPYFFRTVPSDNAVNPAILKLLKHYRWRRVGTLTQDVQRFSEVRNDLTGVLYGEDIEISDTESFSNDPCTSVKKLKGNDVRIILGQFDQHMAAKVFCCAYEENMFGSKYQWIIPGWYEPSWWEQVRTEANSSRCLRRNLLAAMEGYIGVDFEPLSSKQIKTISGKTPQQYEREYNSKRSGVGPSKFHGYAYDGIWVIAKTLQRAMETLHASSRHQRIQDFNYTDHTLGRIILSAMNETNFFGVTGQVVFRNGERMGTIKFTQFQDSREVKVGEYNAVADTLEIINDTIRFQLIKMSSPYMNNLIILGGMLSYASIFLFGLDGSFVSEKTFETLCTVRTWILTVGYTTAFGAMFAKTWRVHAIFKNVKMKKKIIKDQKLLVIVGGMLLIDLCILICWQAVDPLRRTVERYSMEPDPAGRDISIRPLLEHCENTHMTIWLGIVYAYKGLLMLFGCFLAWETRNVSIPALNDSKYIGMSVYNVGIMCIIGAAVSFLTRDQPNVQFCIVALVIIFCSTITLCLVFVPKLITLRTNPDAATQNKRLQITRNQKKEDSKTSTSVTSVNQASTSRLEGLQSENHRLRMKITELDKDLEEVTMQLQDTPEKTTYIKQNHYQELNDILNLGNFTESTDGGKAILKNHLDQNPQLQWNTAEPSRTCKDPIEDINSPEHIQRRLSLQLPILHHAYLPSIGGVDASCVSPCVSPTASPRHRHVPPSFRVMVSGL
Method: A test for GABAB receptor was performed according to the method reported by Kerr et al. (Kerr, D. I. B. Ong, J., Johnston, G. A. R. Abbenante, J. and Prager, R. H. (1988) 2-hydroxy-saclofen: an improved antagonist at central and peripheral GABAB receptors. Neurosci. Lett. 92: 92-96). The ileum was isolated from a guinea pig. […]
In Table 1, the ileum contraction by electric stimulation was calculated as 100%.

5-HT4 receptor = conditions: cited from earlier work
[1] = test system: stress-induced colon distension rat model (visceral pain); assay: Visceral perceptual threshold in stress-induced colon distension visceral pain rat model; conditions: for visceral perceptual threshold that decreased due to the stress: stressed SD rat, from 10 min after administration, Dunnett's test
wrap stress rat model = conditions: in vivo; cited from earlier work

Compound | contraction (%) (NK2 receptor; 0.3 mM, contraction by [βAla^8]NKA(4-10) calculated as 100%) | contraction (%) (NK2 receptor; 3.0 mM, contraction by [βAla^8]NKA(4-10) calculated as 100%) | contraction (%) (NK2 receptor; 30 mM, contraction by [βAla^8]NKA(4-10) calculated as 100%) | pulmonary artery contraction via NK2 receptor (NK2 receptor; 0.3-30 mM, isolated rabbit pulmonary artery) | contraction (%) (GABAB receptor; 0.3 mM) | contraction (%) (GABAB receptor; 3.0 mM) | contraction (%) (GABAB receptor; 30 mM) | ileum contraction via GABAB receptor (GABAB receptor; 0.3-30, isolated guinea pig ileum) | action at 5-HT4 receptor (5-HT4 receptor) | time for which significant increase of visceral perceptual threshold was observed ([1]; 1 g/kg or 3 g/kg orally) | visceral perceptual threshold that decreased due to the stress ([1]; 1 g/kg orally) | visceral perceptual threshold that decreased due to the stress ([1]; 3 g/kg orally) | effect on wrap stress rat model (wrap stress rat model) | contraction (%) (NK2 receptor; 3 × 10^−4 mM, agonist alone, reference set as 100%)
NCCCC[C@H](N)C(=O)O [lysine] | 85% | 41% | 19% | suppressed the pulmonary artery contraction via NK2 receptor, in a dose-dependent manner | 0% | −20% | −77% | suppressed the ileum contraction via GABAB receptor, in a dose-dependent manner | 5-HT4 receptor antagonist | about 2 hr | significantly increased | significantly increased | treatment effect | 
[βAla^8]NKA(4-10) [reference compound] |  |  |  |  |  |  |  |  |  |  |  |  |  | 100%
